We go through 4 molecules from patent publication US5302700A, “Radiohalogenation conjugate technology” (Duke University, priority 1988, dated 1994).

SMILES strings stand for the structures.

A short description of series [1]: Whole body clearance of INA and iodide (FIG. 1). The format is in vivo, mice. Conditions: vs iodide. The method, then:
(§1) The method of choice for comparing the pharmacokinetics of two radioiodinated products (or two samples of the same compound, each sample radioiodinated using a different method) is to administer both to the same group of animals, labeling the first with ^125 I and the second with ^131 I. By performing "paired-label" experiments, one can correct for systematic errors such as incomplete thyroid sampling (less than 10 mg in a mouse) which could make […] comparisons difficult.
(§2) In the first paired-label study, groups of mice were injected with both [^131 ]iodide and 5-^125 I]iodonicotinic acid (hereinafter INA), the labeled substrate which is attached to proteins in the SPC procedure.
One approach for decreasing the retention of a nuclide in normal tissues following the administration of labeled antibodies is to couple the isotope in a chemical form which will be excreted rapidly after antibody catabolism. Degradation of antibodies labeled using the SPC method should result in the production of 5-iodonicotinic acid (INA).

Series [2] in a line: Paired-label study: thyroid and stomach uptake of [125I]INA and [131I]iodide in mice. The format is in vivo.
Excerpt: When radioiodine is released from proteins following in vivo administration, loss of label occurs (dehalogenation). Since free iodide is taken up avidly by the thyroid and, at early time points, localizes in the stomach, uptake of radioiodine by these tissues is often used as an indicator of dehalogenation in vivo.
as §1, §2

For series [3] the following is noted: aqueous solution; background; cited from earlier work.
The conditions of series [4]: background; cited from earlier work.

As to `O=C(O)c1cncc([125I])c1` [INA, 5-[^125 I]iodonicotinic acid], in series [1], the “whole body clearance compared with iodide” value was “considerably faster than iodide”. Besides, the “dehalogenation in vivo of INA template” value in series [2] is “relatively inert to dehalogenation in vivo”. Also, the Stomach uptake in series [2] (1 hr after injection) was 0.69 ± 0.40 percentages of the injected do; in series [2] (2 hr after injection), 0.53 ± 0.41 percentages of the injected do; in series [2] (4 hr after injection), 0.18 ± 0.03 percentages of the injected do; in series [2] (6 hr after injection), 0.24 ± 0.10 percentages of the injected do; in series [2] (24 hr after injection) it was 0.14 ± 0.01 percentages of the injected do. For the same molecule, the Thyroid uptake in series [2] (1 hr after injection) is reported as 0.13 ± 0.13 percentages of the injected do; in series [2] (2 hr after injection), 0.27 ± 0.09 percentages of the injected do; in series [2] (4 hr after injection), 0.44 ± 0.21 percentages of the injected do; in series [2] (6 hr after injection) it was 1.04 ± 0.24 percentages of the injected do; in series [2] (24 hr after injection), 0.67 ± 0.19 percentages of the injected do. Moreover, in series [2] (thyroid, 125I vs 131I), the “thyroid uptake of 125I (INA), times lower than 131I (iodide)” value is 23-56 times lower. In addition, the “percentages of the injected dose localizing in thyroid and, at early time points, stomach, compared with iodide” value in series [2] (vs iodide) is “significantly lower than those observed with iodide”.
As for `I` [Iodide, [^131 I]iodide, reference compound], the Stomach uptake in series [2] (1 hr after injection) is recorded as 16.56 ± 8.10 percentages of the injected do; in series [2] (2 hr after injection), 12.61 ± 7.33 percentages of the injected do; in series [2] (4 hr after injection), 3.53 ± 0.74 percentages of the injected do; in series [2] (6 hr after injection), 4.16 ± 1.82 percentages of the injected do; in series [2] (24 hr after injection) it was 0.06 ± 0.02 percentages of the injected do. Further, the Thyroid uptake in series [2] (1 hr after injection) is recorded as 7.23 ± 1.27 percentages of the injected do; in series [2] (2 hr after injection), 7.23 ± 1.39 percentages of the injected do; in series [2] (4 hr after injection), 12.21 ± 3.27 percentages of the injected do; in series [2] (6 hr after injection), 23.64 ± 4.95 percentages of the injected do; in series [2] (24 hr after injection), 16.95 ± 4.98 percentages of the injected do.
Turning to `O=C(CCc1ccc(O)c([125I])c1)ON1C(=O)CCC1=O` [Bolton-Hunter], the “hydrolysis of the active ester” value in series [3] is listed as “rapid hydrolysis of the active ester in aqueous solution”.
With `COC(=N)c1cc(I)c(O)c(I)c1` [Woods], the “in vivo loss of radioiodine from the protein” value in series [4] was “in vivo loss of radioiodine from the protein”.
